For orientation: EC50 means the concentration giving half of the maximal effect. By bioavailability is commonly meant the share of a dose that reaches the circulation, judged against a reference dose that is usually intravenous. As a reminder, the IC50 is the concentration that inhibits the measured activity by half. As a reminder, the half-life is the time in which the quantity being followed falls by half.

Data set [1] concerns Hepatitis C virus. The data set is described as follows: Antiviral activity against Hepatitis C virus genotype 1b harboring NS5A L28V mutant gene in Huh-luc/neo-ET replicon cells after 48 hrs by transient replicon mutant-based luciferase assay. In kind it is functional, organism-based, Hepacivirus hominis. For orientation: Replicon systems follow genome replication, usually without infectious particles.

The subject of data set [2] is Hepatitis C virus. Nature of the data set: Antiviral activity against Hepatitis C virus genotype 1b harboring NS5A Y93H mutant gene in Huh-luc/neo-ET replicon cells after 48 hrs by transient replicon mutant-based luciferase assay. Type of data set: functional, organism-based, Hepacivirus hominis.
For data set [3], the system named is Hepatitis C virus. Nature of the data set: Antiviral activity against Hepatitis C virus genotype 1a in Huh-luc/neo-ET replicon cells after 48 hrs by replicon-based luciferase assay. In kind it is functional, organism-based, Hepacivirus hominis. The settings on record: subtype 1a.
Data set [4] deals with Hepatitis C virus. Nature of the data set: Ratio of EC50 for Hepatitis C virus genotype 1b harboring NS5A L31V mutant gene to EC50 for Hepatitis C virus genotype 1b harboring wild type NS5A in Huh-luc/neo-ET replicon cells by replicon-based luciferase assay. In kind it is functional, Hepacivirus hominis.
The test system of data set [5] is Hepatitis C virus. Nature of the data set: Ratio of EC50 for Hepatitis C virus genotype 1b harboring NS5A Y93H mutant gene to EC50 for Hepatitis C virus genotype 1b harboring wild type NS5A in Huh-luc/neo-ET replicon cells by replicon-based luciferase assay. In kind it is functional, Hepacivirus hominis.
The test system of data set [6] is Hepatitis C virus. The data set is described as follows: Antiviral activity against Hepatitis C virus genotype 1b harboring NS5A L31V mutant gene in Huh-luc/neo-ET replicon cells after 48 hrs by transient replicon mutant-based luciferase assay. Type of data set: functional, organism-based, Hepacivirus hominis.
Data set [7] concerns Hepatitis C virus. Nature of the data set: Antiviral activity against Hepatitis C virus genotype 1b in Huh-luc/neo-ET replicon cells after 48 hrs by replicon-based luciferase assay. Type of data set: functional, organism-based, Hepacivirus hominis.
Data set [8] is described as follows: In vivo clearance in CD rat relative to hepatic blood flow. Type of data set: ADME, organism-based, Liver. The settings on record: read-out: CLH.
Data set [9] can be described thus: Oral bioavailability in CD rat. In kind it is ADME, organism-based. The settings on record: in vivo.
Data set [10] concerns Hepatitis C virus. Nature of the data set: Antiviral activity against Hepatitis C virus genotype 1b in Huh-luc/neo-ET replicon cells assessed as log10 reduction of HCV RNA at 10 times EC90 after 20 days by RNA reduction assay. In kind it is functional, Hepacivirus hominis.
The subject of data set [11] is Hepatitis C virus. Nature of the data set: Antiviral activity against Hepatitis C virus genotype 1b in Huh-luc/neo-ET replicon cells assessed as log10 reduction of HCV RNA at 3 to 10 times EC90 after 5 days by RNA reduction assay. Type of data set: functional, Hepacivirus hominis.
Data set [12] concerns Hepatitis C virus. Nature of the data set: Antiviral activity against Hepatitis C virus genotype 1b in Huh-luc/neo-ET replicon cells assessed as log10 reduction of HCV RNA at 3 times EC90 after 20 days by RNA reduction assay. In kind it is functional, Hepacivirus hominis.
For the next data set, the target named is T1, Cytochrome P450 1A2 (Homo sapiens, UniProt P05177).
T1 sequence (P05177 whole entry): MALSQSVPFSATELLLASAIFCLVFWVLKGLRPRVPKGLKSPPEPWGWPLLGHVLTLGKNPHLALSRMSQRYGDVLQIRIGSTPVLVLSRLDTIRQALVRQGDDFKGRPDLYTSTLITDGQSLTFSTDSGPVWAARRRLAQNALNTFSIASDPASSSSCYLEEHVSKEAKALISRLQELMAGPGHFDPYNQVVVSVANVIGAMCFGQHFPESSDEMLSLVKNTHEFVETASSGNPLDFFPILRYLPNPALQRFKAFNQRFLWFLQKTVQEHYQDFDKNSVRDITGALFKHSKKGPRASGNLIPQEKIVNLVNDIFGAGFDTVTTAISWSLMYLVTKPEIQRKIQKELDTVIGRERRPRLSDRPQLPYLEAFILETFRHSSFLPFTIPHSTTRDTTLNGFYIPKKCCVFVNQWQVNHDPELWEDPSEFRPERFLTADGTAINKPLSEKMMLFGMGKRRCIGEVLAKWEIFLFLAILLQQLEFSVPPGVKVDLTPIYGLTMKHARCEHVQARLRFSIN
Nature of the data set: Inhibition of CYP1A2 (unknown origin). Type of data set: ADME.

A further data set deals with Cytochrome P450 3A4 (Homo sapiens, UniProt P08684). Nature of the data set: Inhibition of CYP3A4 (unknown origin). In kind it is ADME.
Cytochrome P450 3A4, sequence (P08684 whole entry): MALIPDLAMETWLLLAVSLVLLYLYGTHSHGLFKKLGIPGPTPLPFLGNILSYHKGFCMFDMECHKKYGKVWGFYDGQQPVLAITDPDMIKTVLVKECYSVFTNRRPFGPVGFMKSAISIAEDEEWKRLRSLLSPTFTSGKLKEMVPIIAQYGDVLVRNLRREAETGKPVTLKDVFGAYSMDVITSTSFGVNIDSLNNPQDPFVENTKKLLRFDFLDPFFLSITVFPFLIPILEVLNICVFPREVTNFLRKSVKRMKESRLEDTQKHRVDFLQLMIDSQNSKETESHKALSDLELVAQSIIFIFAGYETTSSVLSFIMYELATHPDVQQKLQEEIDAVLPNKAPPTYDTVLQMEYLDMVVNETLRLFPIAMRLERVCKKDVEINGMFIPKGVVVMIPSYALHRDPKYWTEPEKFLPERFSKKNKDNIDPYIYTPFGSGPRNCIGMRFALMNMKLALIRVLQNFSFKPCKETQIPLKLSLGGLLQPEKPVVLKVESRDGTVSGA
Data set [13] is described as follows: Oral bioavailability in beagle dog. The settings on record: in vivo. In kind it is ADME, organism-based, Canis lupus familiaris.
Data set [14] concerns Hepatitis C virus. Nature of the data set: Antiviral activity against Hepatitis C virus genotype 1 infected in patient assessed as decrease in log10 HCV RNA copies/ml at 1 mg administered as single dose. Type of data set: functional, Hepacivirus hominis.
The target in a further data set is Albumin (Homo sapiens, UniProt P02768). Nature of the data set: Binding affinity to human serum albumin. In kind it is ADME. The settings on record: isolated protein.
Albumin, sequence (P02768 whole entry): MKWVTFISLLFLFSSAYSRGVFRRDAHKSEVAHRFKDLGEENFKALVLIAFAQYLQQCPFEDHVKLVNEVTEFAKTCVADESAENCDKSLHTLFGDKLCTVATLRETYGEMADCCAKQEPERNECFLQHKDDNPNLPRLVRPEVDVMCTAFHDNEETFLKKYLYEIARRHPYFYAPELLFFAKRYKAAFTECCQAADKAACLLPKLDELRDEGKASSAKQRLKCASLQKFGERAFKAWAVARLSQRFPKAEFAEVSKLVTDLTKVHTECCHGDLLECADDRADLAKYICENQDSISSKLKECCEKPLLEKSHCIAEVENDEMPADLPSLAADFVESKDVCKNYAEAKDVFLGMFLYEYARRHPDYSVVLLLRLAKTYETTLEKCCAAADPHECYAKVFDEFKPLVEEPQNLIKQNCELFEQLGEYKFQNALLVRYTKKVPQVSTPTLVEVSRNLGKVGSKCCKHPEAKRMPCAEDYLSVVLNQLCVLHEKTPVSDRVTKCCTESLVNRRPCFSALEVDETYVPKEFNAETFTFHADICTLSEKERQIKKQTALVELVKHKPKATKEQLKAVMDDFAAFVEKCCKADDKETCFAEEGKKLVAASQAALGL
Data set [15] is described as follows: Binding affinity to human alpha1 AGP. The settings on record: isolated protein. Type of data set: ADME.
A further data set deals with Cytochrome P450 2C9 (Homo sapiens, UniProt P11712). Nature of the data set: Inhibition of CYP2C9 (unknown origin). Type of data set: ADME.
Cytochrome P450 2C9, sequence (P11712 whole entry): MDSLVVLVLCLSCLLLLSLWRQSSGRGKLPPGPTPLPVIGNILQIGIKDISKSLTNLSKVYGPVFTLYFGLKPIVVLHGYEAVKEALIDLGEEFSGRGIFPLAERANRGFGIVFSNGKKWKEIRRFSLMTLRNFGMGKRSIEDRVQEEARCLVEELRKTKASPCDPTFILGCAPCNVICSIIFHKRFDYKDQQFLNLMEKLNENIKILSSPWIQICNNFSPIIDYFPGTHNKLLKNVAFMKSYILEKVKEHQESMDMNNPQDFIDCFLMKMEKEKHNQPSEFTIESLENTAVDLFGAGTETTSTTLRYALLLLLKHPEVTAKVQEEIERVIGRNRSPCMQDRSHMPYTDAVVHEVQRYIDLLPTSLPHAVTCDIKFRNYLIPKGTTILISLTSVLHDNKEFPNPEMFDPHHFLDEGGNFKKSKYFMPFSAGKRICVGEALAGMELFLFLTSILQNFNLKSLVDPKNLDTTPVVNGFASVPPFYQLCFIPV
The next data set addresses Cytochrome P450 2D6 (Homo sapiens, UniProt P10635). The data set is described as follows: Inhibition of CYP2D6 (unknown origin). In kind it is ADME.
Data set [16] concerns Hepatitis C virus. Nature of the data set: Antiviral activity against Hepatitis C virus genotype 1 infected in patient assessed as decrease in log10 HCV RNA copies/ml at 120 mg administered as single dose. In kind it is functional, Hepacivirus hominis.
Data set [17] is described as follows: Oral bioavailability in cynomolgus monkey. The settings on record: in vivo. In kind it is ADME, organism-based, Macaca fascicularis.
A short description of data set [18]: In vivo clearance in cynomolgus monkey relative to hepatic blood flow. In kind it is ADME, organism-based, Macaca fascicularis, Liver. The settings on record: read-out: CLH.
Data set [19] can be described thus: Half life in rat hepatocytes. In kind it is ADME, cell-based, Hepatocyte.
The target in the next data set is Cytochrome P450 2C19 (Homo sapiens, UniProt P33261). The data set is described as follows: Inhibition of CYP2C19 (unknown origin). Type of data set: ADME.
Cytochrome P450 2C19, sequence (P33261 whole entry): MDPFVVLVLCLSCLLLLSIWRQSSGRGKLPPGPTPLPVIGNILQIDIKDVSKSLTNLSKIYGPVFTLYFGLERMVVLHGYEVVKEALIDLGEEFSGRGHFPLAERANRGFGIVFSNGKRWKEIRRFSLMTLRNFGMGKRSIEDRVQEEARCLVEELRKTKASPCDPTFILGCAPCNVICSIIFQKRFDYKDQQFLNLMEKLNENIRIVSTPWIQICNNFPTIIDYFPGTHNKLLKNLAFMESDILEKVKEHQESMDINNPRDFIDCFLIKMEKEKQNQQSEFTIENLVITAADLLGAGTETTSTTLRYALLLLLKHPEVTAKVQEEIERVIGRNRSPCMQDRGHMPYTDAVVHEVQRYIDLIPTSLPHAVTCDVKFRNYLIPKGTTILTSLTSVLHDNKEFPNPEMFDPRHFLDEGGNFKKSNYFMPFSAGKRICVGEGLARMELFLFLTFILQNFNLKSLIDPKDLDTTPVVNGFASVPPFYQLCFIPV
Data set [20] in a line: Half life in human hepatocytes. Type of data set: ADME, cell-based, Hepatocyte.
Data set [21] is described as follows: Half life in dog hepatocytes. Type of data set: ADME, cell-based, Canis lupus familiaris, Hepatocyte.
A short description of data set [22]: Cytotoxicity against human HuhET cells infected with Hepatitis C virus up to 40 uM after 48 hrs by WST assay. In kind it is cell-based.
A short description of data set [23]: In vivo clearance in beagle dog relative to hepatic blood flow. Type of data set: ADME, organism-based, Canis lupus familiaris, Liver. The settings on record: read-out: CLH.
The nature of data set [24]: Half life in cynomolgus monkey hepatocytes. Type of data set: ADME, cell-based, Macaca fascicularis, Hepatocyte.

Cytochrome P450 2D6, sequence (P10635 whole entry): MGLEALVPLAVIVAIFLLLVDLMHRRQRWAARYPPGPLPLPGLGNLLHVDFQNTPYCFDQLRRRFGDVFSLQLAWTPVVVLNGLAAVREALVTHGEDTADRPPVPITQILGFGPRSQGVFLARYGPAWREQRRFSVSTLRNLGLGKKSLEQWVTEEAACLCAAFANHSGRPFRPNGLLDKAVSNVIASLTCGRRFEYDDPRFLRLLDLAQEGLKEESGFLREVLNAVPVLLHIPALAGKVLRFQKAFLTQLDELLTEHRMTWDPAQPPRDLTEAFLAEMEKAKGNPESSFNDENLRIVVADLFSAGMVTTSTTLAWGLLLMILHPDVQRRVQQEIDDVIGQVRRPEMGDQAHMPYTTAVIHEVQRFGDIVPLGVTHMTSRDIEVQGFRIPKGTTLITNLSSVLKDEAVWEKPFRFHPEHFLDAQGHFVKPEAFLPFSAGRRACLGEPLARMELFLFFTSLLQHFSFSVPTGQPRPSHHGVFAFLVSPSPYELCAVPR

On to `COC(=O)N[C@H](C(=O)N1CC2(CCOCC2)C[C@H]1c1ncc(-c2ccc(-c3ccc(-c4cnc([C@@H]5CC6(CCOCC6)CN5C(=O)[C@@H](NC(=O)OC)C(C)C)[nH]4)cc3)cc2)[nH]1)C(C)C`, for which the EC50 in the data set on Hepatitis C virus [1] is 0.00631 nM; with Hepatitis C virus [2], 0.126 nM; in the data set with Hepatitis C virus [3] it was 0.02 nM; in the data set on Hepatitis C virus [6], 0.02 nM; in the data set on Hepatitis C virus [7], 0.0126 nM. The “Ratio EC50” value is recorded as “<=5” in the data set on Hepatitis C virus [4] and “>=30” with Hepatitis C virus [5].

For the molecule `COC(=O)N[C@H](C(=O)N1CC2(C[C@H]1c1ncc(-c3ccc(-c4ccc(-c5cnc([C@@H]6CC7(CN6C(=O)[C@@H](NC(=O)OC)C(C)C)OCCO7)[nH]5)cc4)cc3)[nH]1)OCCO2)C(C)C`, the clearance in [8] came out at 3.48 L/h/kg. In addition, the EC50 is 0.0126 nM in the data set on Hepatitis C virus [1]; 0.0126 nM in the data set on Hepatitis C virus [2]; 0.0501 nM in the data set with Hepatitis C virus [3]; 0.0251 nM with Hepatitis C virus [6]; 0.01 nM in the data set with Hepatitis C virus [7]. Besides, in data set [9], the bioavailability was 9%. Moreover, the “Ratio EC50” value in the data set on Hepatitis C virus [4] was “<=5”.

As for `COC(=O)N[C@H](C(=O)N1CCC[C@H]1c1ncc(-c2ccc(-c3ccc(-c4cnc([C@@H]5CCCN5C(=O)[C@@H](NC(=O)OC)C(C)C)[nH]4)cc3)cc2)[nH]1)C(C)C` [DACLATASVIR], the EC50 with Hepatitis C virus [1] was 0.00398 nM; in the data set on Hepatitis C virus [2], 0.316 nM; with Hepatitis C virus [3], 0.0398 nM; in the data set on Hepatitis C virus [6] it was 0.126 nM; in the data set on Hepatitis C virus [7], 0.01 nM. In addition, the FC worked out at 3 in the data set on Hepatitis C virus [10], 2 in the data set with Hepatitis C virus [11] and 2 in the data set with Hepatitis C virus [12]. Moreover, the “Ratio EC50” value is given as “>=25” in the data set on Hepatitis C virus [4] and “>=30” with Hepatitis C virus [5].

For `COC(=O)N[C@H](C(=O)N1CCC[C@H]1c1ncc(-c2ccc(-c3ccc(-c4cnc([C@@H]5CC6(CN5C(=O)[C@@H](NC(=O)OC)C(C)C)OCCO6)[nH]4)cc3)cc2)[nH]1)C(C)C`, the results for the clearance in data set [8], in data set [18] and in data set [23] were 3.6 L/h/kg, 0.54 L/h/kg and 0.48 L/h/kg, respectively. Also, the IC50 against Cytochrome P450 1A2, against Cytochrome P450 3A4, on Cytochrome P450 2C9, at Cytochrome P450 2D6 and against Cytochrome P450 2C19 was above 33000 nM throughout. The bioavailability in [13] was determined as 51%; in data set [9] it was 13%; in data set [17] it was 13%. In addition, the FC in the data set on Hepatitis C virus [14] is 0.996; in the data set on Hepatitis C virus [16] it was 2.95; in the data set with Hepatitis C virus [10], 4; in the data set with Hepatitis C virus [11] it was 2; in the data set on Hepatitis C virus [12] it was 3. The Activity at Albumin is 94%; in data set [15], 86%; in data set [22], “Non-toxic”. In addition, the EC50 with Hepatitis C virus [1] was 0.00316 nM; in the data set on Hepatitis C virus [2], 0.0251 nM; with Hepatitis C virus [3], 0.0398 nM; with Hepatitis C virus [6], 0.0251 nM; in the data set with Hepatitis C virus [7], 0.00794 nM. Moreover, the half-life in data set [19] was 2.67 h; in data set [20] it was at least 6 h; in data set [21], at least 6 h; in data set [24], at least 6 h. In addition, the “Ratio EC50” value was “<=5” with Hepatitis C virus [4] and 3.2 in the data set on Hepatitis C virus [5].

`COC(=O)N[C@H](C(=O)N1CCC[C@H]1c1ncc(-c2ccc(-c3ccc(-c4cnc([C@@H]5CC6(CCC(F)(F)CC6)CN5C(=O)[C@@H](NC(=O)OC)C(C)C)[nH]4)cc3)cc2)[nH]1)C(C)C`: the EC50 in the data set with Hepatitis C virus [1] is 0.00158 nM; in the data set with Hepatitis C virus [2] it was 1 nM; in the data set with Hepatitis C virus [3] it was 0.0398 nM; in the data set with Hepatitis C virus [6] it was 0.2 nM; in the data set on Hepatitis C virus [7], 0.00251 nM. Further, the “Ratio EC50” value in the data set on Hepatitis C virus [4] is recorded as “>=25”; in the data set on Hepatitis C virus [5] it was “>=30”.

For the origin of these results see ChEMBL document CHEMBL3120061, “Novel spiroketal pyrrolidine GSK2336805 potently inhibits key hepatitis C virus genotype 1b mutants: from lead to clinical compound” (J Med Chem, 2014).
